From patent publication US8802732B2, “Lycopene and resveratrol compositions for NK cell activation resulting in anti-neoplastic effect” (Hsiehs Biotech (Singapore) Pte Ltd, priority 2009, dated 2014)

Experiments:
NK cells = experiment: Cytotoxic activity of spleen NK cells from orally treated mice against B16 melanoma cells (LDH release); assay type: in vivo, Balb/c mice; conditions: oral daily for one week; lycopene 2 mg/day or resveratrol 4 mg/day
Protocol: NK cells were isolated from Balb/c mice spleen. Each group of mice were killed at day 7 post-feeding of lycopene/resveratrol. The spleens were excised and soaked in 75% ethanol for 5 min, and smeared gently on cell sieves. The single cells were collected by flushing the sieve with RPMI-1640 medium. The derived total spleen cells were isolated by centrifugation at 2000 rpm by placing the mixture on the top of lymphocyte separation solution for 25 min. The white-colored lymphocyte layer was recovered carefully, and washed twice with serum-free RPMI-1640 medium, counted and transferred into 6-well plates as the stock. The lymphocytes thus prepared contains 10-20% of NK cells, and used for NK cell assay [Ref. 18: Zhang (2006)].
The B16 melanoma was excised from a tumor-bearing C57 mouse, and soaked in Hank's medium for 30 min. The adipose and necrotic parts of the tumor were removed, and the tumor was cut into small pieces and treated with RPMI-1640 containing 0.1% type II […] at 4° C. for 12 h. […]
NK cells isolated from mice spleen were mixed with B16 melanoma cells at ratios of 25:1, 50:1 and 100:1, and incubated at 37° C. After 5 h, the lactate dehydrogenase (LDH) activities in 100 μl of culture media were measured as the cytolytic activity of NK cells. Cytotoxicity is calculated according to the following formula. […]

[1] = cited from earlier work

| Structure (SMILES) | NK cytotoxicity change versus control (NK cells) | anti-oxidative activity, higher than vitamin E ([1]; relative to vitamin E) [folds] | anti-oxidative activity, higher than β-carotene ([1]; relative to β-carotene) [folds] |
| --- | --- | --- | --- |
| CC(C)=CCC/C(C)=C/C=C/C(C)=C/C=C/C(C)=C/C=C/C=C(C)/C=C/C=C(C)/C=C/C=C(\C)CCC=C(C)C [lycopene] | slight increase (not significantly) | 100 | 3.2 |
| Oc1ccc(C=Cc2cc(O)cc(O)c2)cc1 [resveratrol] | slight increase (not significantly) |  |  |
